From the RepoRT retention time repository

Experiment: Agilent InfinityLab Poroshell 120 SB-C18, 100 × 2.1 mm, 2.7 µm, 40 °C, 0.2 mL/min, estimated dead time 1.1 min; A: water + 0.1% formic acid; B: acetonitrile; gradient (min/%B) 0/2 15/95 16/95
Conditions: stereoisomer not certain

SMILES	LC retention time [min]
O=c1ccn(C2OC(COP(=O)(O)OP(=O)(O)O)C(O)C2O)c(=O)[nH]1 (stereo unspecified)	13
CCCCCC(O)C=CC1C(O)CC(=O)C1CC=CCCCC(=O)O (stereo unspecified)	13.3
Nc1ncnc2c1ncn2C1OC(CO)C(O)C1O (stereo unspecified)	4.62
CC(=O)NC1C(O)OC(COP(=O)(O)O)C(O)C1O (stereo unspecified)	1.37
Nc1ncnc2c1ncn2C1OC(COP(=O)(O)OP(=O)(O)O)C(O)C1O (stereo unspecified)	2.87
NC1C(O)OC(CO)C(O)C1O (stereo unspecified)	1.62
CC=CC(=O)O	8.13
CCC(C)C(N)C(=O)O (stereo unspecified)	2.94
CCCCCCCCCCCCCC=CC(O)C(N)CO (stereo unspecified)	15.1
Cc1cn(C2CC(O)C(CO)O2)c(=O)[nH]c1=O (stereo unspecified)	14.7
CCCCCCCCCC(O)CC(=O)O (stereo unspecified)	6.12
O=C(O)CC(O)C(=O)O (stereo unspecified)	4.45
NCC(=O)NC1OC(COP(=O)(O)O)C(O)C1O (stereo unspecified)	13.5
NC(=O)c1ncn(C2OC(COP(=O)(O)O)C(O)C2O)c1N (stereo unspecified)	8.32
CC(O)C(=O)O (stereo unspecified)	3.37
Nc1nc2c(ncn2C2CC(O)C(COP(=O)(O)OP(=O)(O)O)O2)c(=O)[nH]1 (stereo unspecified)	11.7
O=c1ccn(C2OC(COP(=O)(O)OP(=O)(O)OP(=O)(O)O)C(O)C2O)c(=O)[nH]1 (stereo unspecified)	10.1
C=C(CC)C(=O)O	1.62
O=C(CO)C(O)C(O)C(O)COP(=O)(O)O (stereo unspecified)	1.34

SMILES	LC retention time [min]
NC(=O)c1ncn(C2OC(COP(=O)(O)O)C(O)C2O)c1NC=O (stereo unspecified)	1.34
CC(=O)NC1C(OP(=O)(O)OP(=O)(O)OCC2OC(n3ccc(=O)[nH]c3=O)C(O)C2O)OC(CO)C(O)C1O (stereo unspecified)	5.47
NC(=O)C1=CN(C2OC(COP(=O)(O)OP(=O)(O)OCC3OC(n4cnc5c(N)ncnc54)C(OP(=O)(O)O)C3O)C(O)C2O)C=CC1 (stereo unspecified)	8.58
OCC(O)CO	3.76
CC(=O)NC1C(O)OC(CO)C(O)C1O (stereo unspecified)	2.94
O=P(O)(O)OCC1OC(O)C(O)C(O)C1O (stereo unspecified)	1.37
CC12CCC3C(CCC4=CC(=O)CCC43CO)C1CCC2=O (stereo unspecified)	6.37
O=C(O)c1cc(=O)[nH]c(=O)n1C1OC(COP(=O)(O)O)C(O)C1O (stereo unspecified)	8.32
CC(C)CC(N)C(=O)O (stereo unspecified)	6.01
O=C(O)C1CCCN1 (stereo unspecified)	1.41
NC(CCC(=O)NC(CS)C(=O)NCC(=O)O)C(=O)O (stereo unspecified)	2.1
NC(CCC(=O)NC(CSSCC(NC(=O)CCC(N)C(=O)O)C(=O)NCC(=O)O)C(=O)NCC(=O)O)C(=O)O (stereo unspecified)	2.87
O=C(O)CCC(=O)O	6.53
NCC(=O)O	2.87
Nc1ccn(C2CC(O)C(CO)O2)c(=O)n1 (stereo unspecified)	4.1
CCCCCCCCCC=CC(=O)O	12.7
CC(O)C=O (stereo unspecified)	1.48
Nc1ccn(C2CC(O)C(COP(=O)(O)OP(=O)(O)OP(=O)(O)O)O2)c(=O)n1 (stereo unspecified)	4.62
CC(CCCC(CO)COS(=O)(=O)O)C1CCC2C3C(O)CC4CC(O)CCC4(C)C3CC(O)C12C (stereo unspecified)	14.7

SMILES	LC retention time [min]
CC(=O)C(=O)O	2.51
CC(=O)SCCNC(=O)CCNC(=O)C(O)C(C)(C)COP(=O)(O)OP(=O)(O)OCC1OC(n2cnc3c(N)ncnc32)C(O)C1OP(=O)(O)O (stereo unspecified)	11.7
NC(CC(=O)O)C(=O)O (stereo unspecified)	1.34
CCCCCCCCCCCCCCCC(=O)OC(CC(=O)[O-])C[N+](C)(C)C (stereo unspecified)	15.6
COc1cc(C(O)C(=O)O)ccc1O (stereo unspecified)	1.37
Nc1nc2c(ncn2C2CC(O)C(CO)O2)c(=O)[nH]1 (stereo unspecified)	5.19
NCCCCNCCCN	1.45
O=C(O)C1CC(O)C=N1 (stereo unspecified)	2.51
CC(C)CCC=O	1.62
CC(O)(CC(=O)O)CC(=O)SCCNC(=O)CCNC(=O)C(O)C(C)(C)COP(=O)(O)OP(=O)(O)OCC1OC(n2cnc3c(N)ncnc32)C(O)C1OP(=O)(O)O (stereo unspecified)	3.78
O=c1[nH]cnc2nc[nH]c12	2.51
OCC1OC(OC2(CO)OC(CO)C(O)C2O)C(O)C(O)C1O (stereo unspecified)	4.1
CCCC(O)CC(=O)O (stereo unspecified)	12.4
CCCCCCCCCCCCCC=CC(O)C(COC1OC(CO)C(OC2OC(CO)C(O)C(O)C2O)C(O)C1O)NC(=O)CCCCCCCCCCCCCCCCCCCCC (stereo unspecified)	2.36
OCC1OC(O)C(O)C(O)C1O (stereo unspecified)	12
CCCCCC=CCC=CC=CC=CC(SCC(N)C(=O)NCC(=O)O)C(O)CCCC(=O)O (stereo unspecified)	8.91
NC(=O)c1cccnc1	2.46
O=C(O)C(=O)Cc1ccccc1	1.62
